Reference: patent US6358736B1, “Method for increasing the antigen presenting ability of leukemia cells” (The United States of America as represented by the …, priority 1995, dated 2002)

How the values were obtained:
[1] = tested on: NK subpopulation within the PBMC; assay: FACS analysis of NK subpopulation in unfractionated PBMC; format: cell-based, human; conditions: A23187 750 mg/ml, 40 hours
Protocol: (§1) PBMC were prepared by leukapheresis and Ficoll-Hypaque and placed in culture. Since the cells were never elutriated and no adherence step was performed, these cultures included large numbers of T, B, and NK lymphocytes as well as monocytes. The medium was our standard RPMI 10% human AB serum with antibiotics including amphotericin B. Cells were either untreated or treated for 40 hours with calcium ionophore A23187 750 mg/ml. Cells were then harvested and analyzed by FACS. Cells were stained with FITC conjugated anti-CD3, anti-CD40, anti-CD57, anti-CD14, or the combination; in addition cells were stained with PE conjugated control antibodies, anti-B7.1, anti-B7.2, etc. In this way the effect of calcium ionophore treatment on each parameter could be clearly delineated.

[2] = tested on: monocyte subpopulation within PBMC; assay: FACS analysis of monocyte subpopulation in unfractionated PBMC; format: cell-based, human; conditions: A23187 750 ng/ml, 40 hours
Protocol: as §1, with “cultures deliberately” for “cultures”, “ng/ml.” for “mg/ml.”, “anti-CD 14,” for “anti-CD14,”

[3] = tested on: HUVEC; assay: FACS analysis of umbilical vein endothelial cells; format: cell-based, human
Protocol: Endothelial cells were previously isolated from human umbilical vein (HUVEC), then cultured in IMEM with 20% fetal calf serum and rhEGF ([…]). The cells in this experiment had undergone four previous passages to confluence and were trypsinized and reseeded in T25 flasks. After four days culture to reachieve confluence individual flasks were treated with several concentrations of calcium ionophore (180, 375 and 750 ng/ml). Two days later, cells were harvested by trypsinization and analyzed.

[4] = tested on: HL-60 cells cocultured with allogeneic naive T cells; assay: T cell allosensitization by irradiated treated HL-60 cells (3H-TdR); format: cell-based, human; conditions: A23187 180 ng/ml with or without rhGM-CSF 20 ng/ml and IFN-gamma 1000 u/ml, three days
Protocol: Fresh allogeneic naive (CD45R0 negative) T cells were prepared and cocultured with graded numbers of irradiated (3000R) HL-60 cells treated under the above-described conditions. Four days later the cultures were pulsed with ^3H-TdR (tritiated thymidine) and harvested 18 hours later.

[5] = tested on: HL-60 cells; assay: FACS analysis of cell surface markers on HL-60 cells; format: cell-based, human
Protocol: Calcium was removed from cultured cells by two methods.
The second method involved washing the cells extensively in calcium-free RPMI medium, and culturing them in the same calcium-free medium supplemented with serum that had been dialyzed against calcium-free phosphate-buffered saline.
The calmodulin kinase inhibitors KN-62 (20 uM) or KT-5926 (1 uM) was added to HL-60 cells in the presence of 188 ng/ml A23187. Twenty four hours later the level of CD80 was analyzed.
Thapsigargin was added to cultured human peripheral blood monocytes and HL-60 cells in concentrations ranging from 0 to 1000 nM. Cells were harvested 24 hours later and evaluated for the acquisition of ADC immunophenotypic characteristics by FACS analysis.
Cells were harvested after three days, irradiated (3000R), then FACS analyzed or cocultured in graded numbers with freshly prepared naive (CD45RO negative) T lymphocytes. Allosensitization was assessed by pulsing at day 4 with ^3H-TdR and harvesting 18 hours later.

[6] = tested on: B cell subpopulation within the PBMC; assay: FACS analysis of B cell subpopulation in unfractionated PBMC; format: cell-based, human; conditions: A23187 750 mg/ml, 40 hours
Protocol: as §1

[7] = tested on: monocytes / dendritic cells cocultured with allogeneic T cells; assay: Allogeneic T cell sensitization (3H-thymidine) by treated monocytes/dendritic cells; conditions: A23187 750 ng/ml, 40 hours
Protocol: Uncultured monocytes and DC were each purified from elutriation fractions using Miltenyi microsuperparamagnetic beads; monocytes were positively selected based on CD14 expression, while dendritic cells were negatively selected based on low CD14 expression, then positively selected based on CD33 (myeloid marker) expression. Each isolated fraction was cultured for 40 hours either in medium alone or in ionophore A23187 750 ng/ml, then harvested and either FACS analyzed or microcultured with freshly prepared allogeneic T lymphocytes. Graded numbers of the cultured monocytes or dendritic cells were added to fixed numbers of T cells to compare their antigen-presenting ability. Four days later the microcultures were pulsed with ^3H-dTr and harvested 18 hours later.
Monocyte rich elutriation fractions were cultured for 40 hours with either no additives, ionophore A23187 750 ng/ml, or rhIlL-4 (1000 u/ml) and rhGM-CSF (20 ng/ml), a cytokine combination which leads monocytes to differentiate completely to dendritic cells during seven days of culture (Pickl et al, J. Immunol. 157:3850, 1996). MOMC were then harvested, irradiated (1000 rads) and cocultured in triplicate at various MOMC: T cell ratios with 10^5 allogeneic freshly prepared CD4^+ T cells in 0.2 ml RPMI with 5% AB plasma in 96 well tissue flat bottom culture plates. No cytokines were added during coculture. After 4 days [^3H]thymidine (1 μCi/well) was added and 18 hours later the wells were harvested and counted.
Monocytes in monocyte rich elutriation fractions (90-93% monocytes) were further purified using Miltenyi microsuperparagnetic beads coupled to anti-CD14. After incubation with these beads cells were applied to a magnetized column to positively select the strongly CD14^pos cells, and were enriched to >98% purity. Unpurified or purified monocytes were cultured for 40 hours in our standard culture medium with 750 ng/ml ionophore A23187, then harvested. The recovered cells were either immediately FACS analyzed or added in graded numbers to freshly prepared allogeneic T cells to assay their antigen presenting function. Four days later, the T cell cultures were pulsed with ^3H-TdR (tritiated thymidine) and harvested 18 hours later.

[8] = tested on: adherence-enriched monocytes; assay: FACS analysis of monocytes enriched by Ficoll separation and adherence; format: cell-based, human; conditions: A23187 750 ng/ml, 20 hours
Protocol: Blood was drawn in heparinized syringes (approximately 80 cc), diluted 1:1 with normal saline, layered on Ficoll-Hypaque, and centrifuged for 20 minutes to remove neutrophils and red blood cells. The peripheral blood mononuclear cell (PBMC) containing interface were washed, counted, and added to 24 well plates, 2 cc culture medium per well, 2×10^7 cells per well.
After 60 minutes the non adherent cells were removed, leaving a half confluent surface of adherent cells in each well (i.e., monocyte enrichment by adherence) Wells were either untreated or treated with calcium ionophore A23 187 750 ng/ml, and harvested 20 hours later.

[9] = tested on: monocytes cocultured with autologous CD8+ T cells; assay: Autologous CD8+ T cell sensitization to peptide-pulsed monocytes (interferon gamma secretion); format: cell-based, human
Protocol: Monocyte-rich elutriation fractions from healthy HLA-A2.1 donors were either untreated or treated with ionophore A23187 750 ng/ml for 40 hours, then pulsed with either the M1 influenza-derived peptide or the MART1 melanoma-derived peptide (the M1 peptide is a “recall antigen” for all HLA-A2.1^pos individuals, whereas the MART1 peptide is usually a “recall antigen” only for HLA-A2.^pos patients with melanoma). Antigen-pulsed monocytes were cocultured with freshly prepared autologous CD8^+ T cells for 8-10 days; the T cells were then harvested and cocultured with peptide-pulsed HLA-A2.1 positive T2 stimulator cells which had been pulsed 2 hours with 1 μg/ml of either the MART1 peptide, the influenza M1 derived peptide, or an irrelevant HIV peptide to assess whether specific sensitization to FLU or MART1 peptides was attained.
After 40 hours, the cells were pulsed with a tumor derived HER2neu (369-377) peptide for two hours, harvested, then FACS analyzed or cocultured for 8-10 days with naive autologous CD8^+ T cells to determine whether rapid sensitization to the HER2neu peptide could be achieved.

With CNc1ccc2oc(C[C@H]3O[C@@]4(CC[C@H]3C)O[C@H]([C@H](C)C(=O)c3ccc[nH]3)[C@H](C)C[C@H]4C)nc2c1C(=O)O [A23187] the “upregulation of surface markers” value [1] was “negligible upregulation of surface markers”, the CD14 expression [2] was “downregulation of CD14 to a background level” and the “increase of B7.1 expression” value [2] was “seven”. For the same molecule, the “increase of B7.2 expression” value [2] was 10 fold, the “increase of CD40 expression” value [2] was 7 fold and the “increase of CD83 expression” value [2] was 11 fold. The “increase of HLA-DR expression” value [2] was 9 fold, the “increase of ICAM-1 expression” value [2] was 4.5 fold and the “ICAM-1 and CD40 expression” value ([3]; 375 and 750 ng/ml, two days) was “upregulated ICAM-1 and CD40 expression”. For the same molecule, the HLA-ABC expression ([3]; two days) was “unchanged”, the “B7.1, B7.2, HLA-DR and CD83 expression” value ([3]; with or without ionophore treatment) was “failed to express detectable B7.1, B7.2, HLA-DR or CD83” and the “allostimulation of naive T cells” value [4] was “significantly allostimulatory”. For the same molecule, the costimulatory molecule expression ([5]; A23187 180 ng/ml, three days) was “marked upregulation of costimulatory molecules B7.1, B7.2, and ICAM-1”, the HLA-DR expression ([5]; agent alone) was “not induced” and the “ablation of ionophore-induced upregulation of CD80 and CD86” value ([5]; calcium-free RPMI and dialyzed serum) was about 100%. The “B7.1 and B7.2 expression” value [6] was “a subpopulation of B cells developed marked B71 and B72 expression”, the “T cell sensitizing capacity of purified monocytes vs prepurified fraction cells” value [7] was “enhanced T cell sensitizing capacity identical on a cell numbers basis” and the “T cell sensitizing capacity of treated monocytes (allogeneic CD4+ T cells)” value ([7]; graded numbers) was “much greater T cell sensitizing capacity”. The “T cell sensitizing efficiency of purified DC” value ([7]; vs untreated) was “only a modest increase”, the “T cell sensitizing efficiency of purified monocytes” value ([7]; vs untreated) was “a more marked enhancement” and the “B7.1 and CD83 expression” value [8] was “de novo B7.1 and CD83 expression”. For the same molecule, the “B7.2, HLA-DR and CD40 expression” value [8] was “upregulated B72, HLA-DR, and CD40 expression”, the CD14 expression [8] was “uniform CD14 downregulation” and the “stimulation of autologous T cell response to recall antigen M1 influenza peptide, vs untreated monocytes” value ([9]; A23187 750 ng/ml, 40 hours, HLA-A2.1 donors) was “equally able”. For the same molecule, the “sensitization of autologous T cells to MART1 peptide” value ([9]; A23187 750 ng/ml, 40 hours, eight normal donors) was “in every instance” and the “T cell sensitization to HER2neu (369-377) peptide” value ([9]; monocytes treated 40 hours, majority of patients) was “could not be achieved”.
